Test results as given in PubChem BioAssay (NCI).
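Tested at 5 concentrations; 48 h exposure; 96-well plates; endpoints linearly interpolated, else capped at highest concentration. The concentration for 50% growth inhibition is given as GI50. TGI marks complete inhibition of growth.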

Tests used:
Experiment in all cases: growth of human tumour cells (NCI), 48 h
NCI-H522 lung = test system: NCI-H522 lung
CAKI-1 renal = test system: CAKI-1 renal
PC-3 prostate = test system: PC-3 prostate
OVCAR-5 ovarian = test system: OVCAR-5 ovarian
DU-145 prostate = test system: DU-145 prostate
SNB-75 CNS = test system: SNB-75 CNS
HS 578T breast = test system: HS 578T breast
M14 melanoma = test system: M14 melanoma
MCF7 breast = test system: MCF7 breast
SK-MEL-5 melanoma = test system: SK-MEL-5 melanoma

SMILES	TGI (NCI-H522 lung)	TGI (CAKI-1 renal)	TGI (PC-3 prostate)	TGI (OVCAR-5 ovarian)	TGI (DU-145 prostate)	TGI (SNB-75 CNS)	TGI (HS 578T breast)	TGI (M14 melanoma)	TGI (MCF7 breast)	GI50 (NCI-H522 lung)	GI50 (CAKI-1 renal)	GI50 (PC-3 prostate)	GI50 (SK-MEL-5 melanoma)	TGI (SK-MEL-5 melanoma)	GI50 (OVCAR-5 ovarian)	GI50 (DU-145 prostate)	GI50 (HS 578T breast)	GI50 (M14 melanoma)	GI50 (MCF7 breast)
c1ccc2sc(SCCSc3nc4ccccc4s3)nc2c1	> 100 µM	> 100 µM	> 100 µM	> 100 µM	> 100 µM	> 100 µM	> 100 µM	> 100 µM	> 100 µM	–	–	–	–	–	–	–	–	–	–
COc1ccc(C(c2cc(OC)c(OC)c(OC)c2)n2ccnc2)cc1O (configuration not stated)	0.76 µM	> 100 µM	> 100 µM	> 100 µM	> 100 µM	–	> 100 µM	0.646 µM	> 100 µM	0.247 µM	0.68 µM	0.384 µM	0.367 µM	3.18 µM	0.648 µM	0.407 µM	0.414 µM	0.18 µM	0.339 µM
NNC(=S)N/N=C(\C(=O)Nc1cccc(O)c1)C1C(=O)NC(=S)NC1=O	> 100 µM	> 100 µM	> 100 µM	> 100 µM	–	> 100 µM	> 100 µM	> 100 µM	> 100 µM	–	–	–	–	> 100 µM	–	–	–	–	–
COC(=O)c1n[nH]c(C)c1N=NN(C)CCC#N	25.1 µM	33.4 µM	74.7 µM	–	51.6 µM	33 µM	52 µM	> 100 µM	25.7 µM	–	–	–	–	74.5 µM	–	–	–	–	–
CC1=CC(=O)C2=C(C)CCC3C(C)C(=O)OC3C12 (configuration not stated)	> 100 µM	> 100 µM	> 100 µM	> 100 µM	> 100 µM	–	> 100 µM	> 100 µM	> 100 µM	–	–	–	–	> 100 µM	–	–	–	–	–
COC(=O)CC(NC(=O)OCc1ccccc1)C(C(C)=O)C(=O)OCc1ccccc1 (configuration not stated)	> 31.6 µM	> 31.6 µM	–	> 100 µM	–	30.8 µM	–	> 31.6 µM	–	–	–	–	–	> 31.6 µM	–	–	–	–	–
C[C@@H](NC1CCCC[C@H]1O)c1ccccc1 (some centres not stated)	> 100 µM	–	–	–	–	> 100 µM	–	> 100 µM	–	–	–	–	–	> 100 µM	–	–	–	–	–
Cc1ccc(S(=O)(=O)OCCn2cnc3nc(NC(=O)c4ccccc4)[nH]c(=O)c32)cc1	> 100 µM	> 100 µM	–	> 100 µM	–	> 100 µM	–	> 100 µM	–	–	–	–	–	> 100 µM	–	–	–	–	–
COC(=O)CCC(NC(=S)N/N=C(\C)c1cnc2ccccc2n1)C(=O)OC (configuration not stated)	38.2 µM	–	–	63.4 µM	–	> 100 µM	–	> 100 µM	–	–	–	–	–	80.7 µM	–	–	–	–	–
C/C(=C1/N=C(c2cc([N+](=O)[O-])ccc2Cl)N(c2cccc(C)c2)C1=O)c1cc2ccccc2oc1=O	> 100 µM	> 100 µM	–	> 100 µM	–	> 100 µM	–	> 100 µM	–	–	–	–	–	53.8 µM	–	–	–	–	–
N#CCCN(c1ccc(C=Nc2ccccc2)cc1)S(=O)(=O)c1ccccc1	> 100 µM	> 100 µM	–	–	–	> 100 µM	–	> 100 µM	–	–	–	–	–	> 100 µM	–	–	–	–	–
Cn1cc(C(=O)c2ccccc2)c2ccccc2c1=O	> 100 µM	> 100 µM	–	–	–	> 100 µM	–	> 100 µM	–	–	–	–	–	> 100 µM	–	–	–	–	–
CN1c2ccccc2N(C(=O)c2ccc([N+](=O)[O-])cc2)C(CC(=O)O)c2cccn21 (configuration not stated)	> 100 µM	> 100 µM	–	> 100 µM	–	> 100 µM	–	> 100 µM	–	–	–	–	–	> 100 µM	–	–	–	–	–
